Experimental data taken from patent publication US20030134851A1, “Methods and compositions for providing glutamine” (priority 2001, published 2003).
“Also recorded” adds a separate entry of the source.

How the values were obtained:
[1] = Aqueous N-acetyl-L-glutamine and glutamine heat stability at 100° C. (HPLC); assay type: physicochemical; settings: for Stability during incubation at 100° C. (in words): aqueous solution, 2 hour incubation at 100° C.
Protocol: In order to test the stability of aqueous N-acetyl-glutamine upon heating, the following procedure was followed. Aqueous solutions of N-acetyl-L-glutamine (obtained from Sigma, catalog no. A-9125) and glutamine (obtained from Aldrich, catalog no. G-320-2) at approximately 1 mg/mL (5.3 mM and 6.8 mM, respectively) were prepared without pH adjustment. The pH of the resulting N-acetyl-L-glutamine solution was 2.9 and the pH of the glutamine solution was 6.0. The solutions were heated at 100° C. using a Reacti-Therm™ stirring heat block with sealed 4 mL vessels, one for each time point: 15 minutes, 30 minutes, 1 hour and 2 hours. The samples were removed from the heat block and immediately placed into ice until cool. An aliquot of each sample was filtered through 0.45 micrometer filters (Millipore Millex®-HV, 25 mm) for assessment by HPLC. HPLC analysis was conducted using an Inertsil® C8, 5 micrometer, 4.6×250 mm column (obtained from Keystone Scientific, Inc., Bellefonte, Pa.). The mobile phase was water adjusted to pH 2.2 with HCl (isocratic at 1 mL/minute). The injection volume was 10 microliters. Ultraviolet detection was at 214 nm.

[2] = system: small intestine bioptic fragments of patients with untreated celiac disease; test: Organ culture of small intestine biopsies of untreated celiac patients (TUNEL, CD25); assay type: cell-based, human; settings: 40 ug/ml, 24 hours organ culture
Protocol: The study was performed in a blind fashion. For this study a organ culture model of celiac, which is a widely used and validated to explore gluten toxicity and mucosal damage in celiac disease was utilized. For the purpose of this project small intestine bioptic fragments of patients with untreated celiac disease were used. Biopsies of untreated celiac patients are ideal to monitor aspects of mucosal damage including induction of epithelial apoptosis and increase of mucosal inflammation.
Twelve adult patients, who were diagnosed as potential untreated celiac patients, were enrolled. Their disease was confirmed by clinical signs, the presence of high titres of anti-tissue transglutaminase and histological analysis of small intestine biopsies.
Organ cultures were performed using standard methods described in Maiuri, L. et al, Gastroenterology 110, 1368-1378. (1996). Briefly a small biopsy fragment (around 1 mm×1 mm) was put on stainless steel mesh and cultured in medium supplemented with the different compounds for a period of 24 hours. The standard positive and negative controls used in studies involving celiac patients and in vitro challenge of biopsies were utilized. The positive control was 1 mg/ml of gliadin peptic-tryptic digest. The negative control was the medium alone. All the compounds to be tested were used at the final concentration of 40 ug/ml. […]
Antigen detection on frozen tissue sections was performed by immunohistochemistry as described in Maiuri, L. et al. Blockage of T-cell costimulation inhibits T-cell action in Celiac disease. […] At least 5 slides for each sample were blindly evaluated. […]
The total number of TUNEL+ enterocytes was referred as percentage of enterocytes. The total number of CD25+ cells in the lamina propria was determined within a standard reference area of 1 mm^2. The counts were performed at a microscope with a calibrated ocular graticule aligned parallel to the muscolaris mucosae and independently analysed by two observers; the results were compared afterwards.

[3] = administered intravenously, humans; cited from earlier work
[4] = orally administered radiolabeled, rats; cited from earlier work
[5] = approx. 1 mg/mL, pH 6.0, 100° C., 30 min
[6] = approx. 1 mg/mL, pH 6.0, 100° C., 60 min
[7] = approx. 1 mg/mL, pH 6.0, 100° C., 120 min

## NC(=O)CC[C@H](N)C(=O)O [Glutamine, glutamine]
[1]; approx. 1 mg/mL (6.8 mM), pH 6.0, 100° C., 0 min
  GLN (glutamine) in glutamine solution: 100.0 height %
[1]; approx. 1 mg/mL, pH 6.0, 100° C., 0 min
  PGA (pyroglutamic acid) in glutamine solution: none detected
[1]; [5]
  GLN (glutamine) in glutamine solution: 90.2 height %
  PGA (pyroglutamic acid) in glutamine solution: 9.8 height %
[1]; [6]
  GLN (glutamine) in glutamine solution: 80.0 height %
  PGA (pyroglutamic acid) in glutamine solution: 20.0 height %
[1]; [7]
  GLN (glutamine) in glutamine solution: 53.6 height %
  GLU (glutamate) in glutamine solution: 10.6 height %
  PGA (pyroglutamic acid) in glutamine solution: 35.8 height %
[1]
  Stability during incubation at 100° C. (in words): not stable

## CC(=O)N[C@@H](CCC(N)=O)C(=O)O [N-acetyl-L-glutamine]
[1]; approx. 1 mg/mL (5.3 mM), pH 2.9, 100° C., 0 min
  NAQ (N-acetyl-L-glutamine) in N-acetyl-L-glutamine solution: 99.7 area %
[1]; approx. 1 mg/mL, pH 2.9, 100° C., 30 min
  NAQ (N-acetyl-L-glutamine) in N-acetyl-L-glutamine solution: 98.1 area %
[1]; approx. 1 mg/mL, pH 2.9, 100° C., 60 min
  NAQ (N-acetyl-L-glutamine) in N-acetyl-L-glutamine solution: 96.9 area %
[1]; approx. 1 mg/mL, pH 2.9, 100° C., 120 min
  NAQ (N-acetyl-L-glutamine) in N-acetyl-L-glutamine solution: 93.4 area %
[1]
  Stability during incubation at 100° C. (in words): much more stable than glutamine
[1]; pH 2.9, 100° C., 0 min
  NAE (N-acetyl-L-glutamic acid) in N-acetyl-L-glutamine solution: 0.3 area %
[1]; pH 2.9, 100° C., 30 min
  2,6-DPA (2,6-dioxopiperidinylacetamide) in N-acetyl-L-glutamine solution: 0.6 area %
  NAE (N-acetyl-L-glutamic acid) in N-acetyl-L-glutamine solution: 1.2 area %
[1]; pH 2.9, 100° C., 60 min
  2,6-DPA (2,6-dioxopiperidinylacetamide) in N-acetyl-L-glutamine solution: 1.3 area %
  NAE (N-acetyl-L-glutamic acid) in N-acetyl-L-glutamine solution: 1.8 area %
[1]; pH 2.9, 100° C., 120 min
  2,6-DPA (2,6-dioxopiperidinylacetamide) in N-acetyl-L-glutamine solution: 2.7 area %
  NAE (N-acetyl-L-glutamic acid) in N-acetyl-L-glutamine solution: 3.7 area %
  PGA (pyroglutamic acid) in N-acetyl-L-glutamine solution: 0.2 area %
[2]
  Induction of epithelial apoptosis (TUNEL) and sub-epithelial inflammation (CD25): did not induce any effect
  Trophic effect on the biopsies of untreated celiac patients: clear trophic effect; also recorded: appears to improve the overall condition of the mucosa even compared to medium alone
[2]; listed as N-acetyl-glutamine
  Trophic effect on the biopsies of untreated celiac patients: clear trophic effect
[3]
  Dose excreted in the urine: 20-40%
[4]
  Absorption across the intestinal mucosa: absorbed intact
